Experimental data as given in article PMC4021826, “Functional characterization of a xylose transporter in Aspergillus nidulans” (Biotechnology for Biofuels, 2014).

Biological target: T1, XtrD (Aspergillus nidulans, UniProt Q5BGT0)
T1 construct: gene ANIA_00250; full-length xtrD in modified vector pRH195 (HXT7 promoter), expressed in S. cerevisiae EBY.VW4000 lacking hexose transporters
T1 sequence (Q5BGT0 1-547): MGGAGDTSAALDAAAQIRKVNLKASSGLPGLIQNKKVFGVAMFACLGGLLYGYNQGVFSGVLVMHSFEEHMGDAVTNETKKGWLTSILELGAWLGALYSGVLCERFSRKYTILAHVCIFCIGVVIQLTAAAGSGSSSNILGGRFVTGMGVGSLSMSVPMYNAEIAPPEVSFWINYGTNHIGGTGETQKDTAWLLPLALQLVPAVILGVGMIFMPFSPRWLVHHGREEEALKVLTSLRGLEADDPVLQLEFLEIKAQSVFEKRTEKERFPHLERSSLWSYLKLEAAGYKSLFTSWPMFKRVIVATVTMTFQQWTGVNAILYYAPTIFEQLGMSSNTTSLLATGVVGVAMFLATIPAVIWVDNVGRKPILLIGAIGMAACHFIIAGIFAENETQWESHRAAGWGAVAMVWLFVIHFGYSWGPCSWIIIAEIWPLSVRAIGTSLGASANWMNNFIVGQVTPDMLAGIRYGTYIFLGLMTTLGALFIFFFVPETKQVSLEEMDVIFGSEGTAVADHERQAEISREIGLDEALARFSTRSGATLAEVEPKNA
Experiment: competition of […]glucose uptake in S. cerevisiae EBY.VW4000 expressing xtrD
Format: cell-based
Conditions: 10- and 20-fold excess unlabeled xylose over glucose, respectively; 5 s uptake, 30 °C

## OC1OC[C@@H](O)[C@H](O)[C@H]1O (stereo partly shown) [xylose]
  % inhibition of radiolabeled glucose transport at 10- and 20-fold excess: 90% to 100%
